This is an account of results in paper PMC10584170, “Machine learning-based phenotypic imaging to characterise the targetable biology of Plasmodium falciparum male gametocytes for the development of transmission-blocking antimalarials” (PLOS Pathogens, 2023).

Data set [1] relates to P. falciparum male gametocytes. Description: P. falciparum Dual Gamete Formation Assay (PfDGFA), male readout (exflagellation). The data set is classed as cell-based, Plasmodium falciparum NF54. The conditions noted are these: for Selectivity Ratio M: HepG2 Tox50 versus male IC50. An outline of the steps:
(§1)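 Two sex-specific readouts come from one well: male exflagellation centres recorded by brightfield video right after activation, and female gametes scored by Cy3-anti-Pfs25 fluorescence after 24 h at 28°C.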

Data set [2] concerns P. falciparum female gametocytes. Description: P. falciparum Dual Gamete Formation Assay (PfDGFA), female readout (Pfs25-positive female gametes). Type of data set: cell-based, Plasmodium falciparum NF54. The conditions noted are these: for Selectivity ratio F: HepG2 Tox50 versus female IC50. The method in brief:
as §1

The subject of data set [3] is P. berghei ookinete development. The data set can be described thus: P. berghei Ookinete Development Assay (PbODA). Type of data set: cell-based, Plasmodium berghei. The conditions noted are these: Mean TOX HepG2 over Pb ODA value; GREEN = >10-fold; RED = <10-fold. An excerpt:
(§2) Fig 1 The activity of TCAMS compound identified in the Pf DGFA screen. (A) 85 molecules were confirmed active in the Pf DGFA. 58 were previously identified in one or more transmission-blocking screens. […] No molecule was identified with >4.7-fold greater activity against female gametocytes. Abbreviations (IC50 = concentration giving 50% inhibition, PbODA = P. berghei Ookinete Development Assay, PfDGFA = P. falciparum Dual Gamete Formation Assay, PfFGAA = P. falciparum Female Gametocyte Activation Assay, PfGCT = P. falciparum Gametocyte Viability ATP Assay).

The test system of data set [4] is P. falciparum gametocytes. Description: P. falciparum Gametocyte Viability ATP Assay (PfGCT). The data set is classed as cell-based, Plasmodium falciparum.
From the text: as §2

For data set [5], the system named is P. falciparum gametocytes. Details: method as in Almela et al 2015. The conditions noted are these: ref Almela et al 2015; read-out: Pf Gametocyte viability (ATP) GC-ATP IC50; cited from earlier work.
In data set [6] the test system is HepG2 cells. The conditions noted are these: cited from earlier work.
In data set [7] the test system is HepG2 cells. The data set can be described thus: HepG2 cytotoxicity counter-screen. The conditions noted are these: for Mean TOX: mean of the HepG2 TOX50 values; for Tox50: cytotoxic activity against HepG2 cells. (Counterscreens check selectivity or assay interference.)
The test system of data set [8] is P. falciparum female gametocytes. Description: P. falciparum Female Gametocyte Activation Assay (PfFGAA). Type of data set: cell-based, Plasmodium falciparum.
For data set [9] the test system is unchanged. Further details: method as in Miguel-Blanco et al 2017. The conditions noted are these: ref Miguel-Blanco et al 2017; read-out: Pf female gametogenesis FGAA IC50; cited from earlier work.
[10] abbreviates: this study, read-out: Pf DGFA IC50 MALE.
Where [11] appears, read: this study, read-out: Pf DGFA IC50 FEM.
Setting [12] is: Mean TOX HepG2 over GC-ATP IC50, GREEN = >10-fold, RED = <10-fold.
Setting [13] is: Mean TOX HepG2 over DGFA IC50 MALE, GREEN = >10-fold, RED = <10-fold.
The mark [14] stands for this setting: Plasmodium falciparum, PfDGFA, 24 h incubation with gametocytes before induction, exflagellation readout, read-out: Male IC50.
Setting [15] is: Mean TOX HepG2 over DGFA IC50 FEM, GREEN = >10-fold, RED = <10-fold.
Where [16] appears, read: Plasmodium falciparum, PfDGFA, 24 h incubation with gametocytes before induction, female gamete readout, read-out: Female IC50.
[17] abbreviates: HepG2 value reported with the FGAA screen, ref Miguel-Blanco et al 2017.
[18] abbreviates: HepG2 value reported with the GC-ATP screen, ref Almela et al 2015.
Setting [19] is: Plasmodium falciparum, 2µM, 24h preincubation with gametocytes, average of replicates, read-out: Average inhibition male (%).
[20] abbreviates: Plasmodium falciparum, 2µM, 24h preincubation with gametocytes, replicate R1, read-out: % inhibition male (individual replicates) R1.
[21] abbreviates: Plasmodium falciparum, 2µM, 24h preincubation with gametocytes, replicate R2, read-out: % inhibition male (individual replicates) R2.
The mark [22] stands for this setting: Plasmodium falciparum, 2µM, 24h preincubation with gametocytes, replicate R3, read-out: % inhibition male (individual replicates) R3.
The mark [23] stands for this setting: Plasmodium falciparum, 2µM, 24h preincubation with gametocytes, replicate R4, read-out: % inhibition male (individual replicates) R4.
The mark [24] stands for this setting: Plasmodium falciparum, 2µM, 24h preincubation with gametocytes, average of replicates, read-out: Average inhibition female (%).
The mark [25] stands for this setting: Plasmodium falciparum, 2µM, 24h preincubation with gametocytes, replicate R1, read-out: % inhibition female (individual replicates) R1.
The mark [26] stands for this setting: Plasmodium falciparum, 2µM, 24h preincubation with gametocytes, replicate R2, read-out: % inhibition female (individual replicates) R2.
Setting [27] is: Plasmodium falciparum, 2µM, 24h preincubation with gametocytes, replicate R3, read-out: % inhibition female (individual replicates) R3.
Setting [28] is: Plasmodium falciparum, 2µM, 24h preincubation with gametocytes, replicate R4, read-out: % inhibition female (individual replicates) R4.

Like-named read-outs stand apart in the source and are kept apart here.

In the case of `O=c1c(Br)ccccc1Br` [TC48], the “Cytotox ratio Pf Male” value in [1] was 76.3. Moreover, the 50% inhibitory concentration (IC50) in data set [1] (setting [10]) was 150 nM; in [2] (setting [11]) it was 110 nM; in [5] it was 210 nM. The “Cytotox ratio Pf Female” value in data set [2] was 104.1. The “Cytotox ratio Pb Ookinete” value in [3] is 10834.6. In addition, the “Cytotox ratio Pf GC-ATP” value in [4] (setting [12]) was 54.5. The “GC-ATP TOX50 HepG2” value in [6] is on record as 12.6 µM. Besides, the “ODA TOX50 HepG2” value in data set [6] was 14.791 µM. Moreover, the “Mean TOX” value in [7] is on record as 11.45 µM.
`O=C(O)CCSSc1cccc[n+]1[O-]` [TC78]: the “Cytotox ratio Pf Male” value in data set [1] amounted to 92.3. In addition, the 50% inhibitory concentration (IC50) is 240 nM in data set [1] (setting [10]), 260 nM in data set [2] (setting [11]), 40 nM in data set [9] and 270 nM in data set [5]. In [2], the “Cytotox ratio Pf Female” value is 85.2. The “Cytotox ratio Pb Ookinete” value in data set [3] stood at 13258.7. Besides, the “Cytotox ratio Pf FGAA” value in [8] (Mean TOX HepG2 over FGAA IC50, GREEN = >10-fold, RED = <10-fold) is on record as 554.1. The “Cytotox ratio Pf GC-ATP” value in data set [4] (setting [12]) amounted to 82.1. Moreover, the “FGAA TOX50 HepG2” value in [6] is listed as 19.05 µM. In addition, in data set [6], the “GC-ATP TOX50 HepG2” value is 7.8 µM. Moreover, the “ODA TOX50 HepG2” value in data set [6] is recorded as 30.903 µM. The “Mean TOX” value in data set [7] is reported as 22.16 µM.
For the compound `COc1cc2nc(N3CCN(c4nc(N)c5cc(OC)c(OC)cc5n4)CC3)nc(N)c2cc1OC` [TCMDC-123865], in [1] (2µM, 24h preincubation, number of replicates with >50% inhibition in the male readout), the HitlevelM worked out at 3. The “Selectivity Ratio M” value in data set [1] was 28.11. Moreover, the “Cytotox ratio Pf Male” value in data set [1] (setting [13]) worked out at 26.9. Further, the inhibition at 2 µM in [1] (Plasmodium falciparum, 2µM, 24h preincubation with gametocytes prior to induction of gametogenesis, average of replicates, read-out: Average inhibition male (%)) came out at 50.1%; in data set [1] (Plasmodium falciparum, 2µM, 24h preincubation with gametocytes prior to induction of gametogenesis, replicate R1, read-out: % inhibition male (individual replicates) R1) it was 50.8%; in data set [1] (Plasmodium falciparum, 2µM, 24h preincubation with gametocytes prior to induction of gametogenesis, replicate R2, read-out: % inhibition male (individual replicates) R2) it was 50.6%; in [1] (Plasmodium falciparum, 2µM, 24h preincubation with gametocytes prior to induction of gametogenesis, replicate R3, read-out: % inhibition male (individual replicates) R3) it was 23.6%; in [1] (Plasmodium falciparum, 2µM, 24h preincubation with gametocytes prior to induction of gametogenesis, replicate R4, read-out: % inhibition male (individual replicates) R4), 75.6%; in data set [2] (Plasmodium falciparum, 2µM, 24h preincubation with gametocytes prior to induction of gametogenesis, average of replicates, read-out: Average inhibition female (%)) it was 2.6%. For the same compound, the inhibition at 2 µM in data set [2] (Plasmodium falciparum, 2µM, 24h preincubation with gametocytes prior to induction of gametogenesis, replicate R1, read-out: % inhibition female (individual replicates) R1) is 18.2%; in data set [2] (Plasmodium falciparum, 2µM, 24h preincubation with gametocytes prior to induction of gametogenesis, replicate R2, read-out: % inhibition female (individual replicates) R2), 4%; in data set [2] (Plasmodium falciparum, 2µM, 24h preincubation with gametocytes prior to induction of gametogenesis, replicate R3, read-out: % inhibition female (individual replicates) R3) it was -8.7%; in data set [2] (Plasmodium falciparum, 2µM, 24h preincubation with gametocytes prior to induction of gametogenesis, replicate R4, read-out: % inhibition female (individual replicates) R4) it was -3.2%. Also, the half-inhibitory concentration (IC50) in [1] (setting [14]) was 1470 nM; in [2] (setting [16]), 1990 nM; in data set [9] it was 580 nM; in data set [5], 260 nM. Besides, in [2] (2µM, 24h preincubation, number of replicates with >50% inhibition in the female readout), the HitlevelF stood at 0. Further, the “Selectivity ratio F” value in [2] is 20.76. In addition, the “Cytotox ratio Pf Female” value in data set [2] (setting [15]) amounted to 19.9. Moreover, in [8] (human), the “Cytotox ratio Pf FGAA” value is recorded as 68.3. For the same compound, the “Cytotox ratio Pf GC-ATP” value in data set [4] (human) turned out to be 152.3. In data set [6] (setting [17]), the “FGAA TOX50 HepG2” value was 52.49 µM. Also, the “GC-ATP TOX50 HepG2” value in data set [6] (setting [18]) is listed as 25 µM. Moreover, the Tox50 in data set [7] turned out to be 41.34 µM. In [7], the “Mean TOX” value was determined as 39.61 µM.
Consider `CN(C)CCNCc1cccc(-c2ccc3c(Nc4ccc(Oc5ccccn5)cc4)ccnc3c2)c1` [TCMDC-138493], for which, in data set [1], the “Selectivity Ratio M” value turned out to be 14.59. Besides, the “Cytotox ratio Pf Male” value in [1] (setting [13]) is on record as 8.5. Moreover, the inhibition at 2 µM in data set [1] (setting [19]) came out at 96.2%; in [1] (setting [20]) it was 93.5%; in data set [1] (setting [21]) it was 99.2%; in data set [1] (setting [22]), 91.9%; in [1] (setting [23]), 100%; in data set [2] (setting [24]), 65.4%. Further, the inhibition at 2 µM amounted to 58.7% in data set [2] (setting [25]), 66.3% in data set [2] (setting [26]), 72.6% in data set [2] (setting [27]) and 64.1% in data set [2] (setting [28]). Further, the IC50 in [1] (setting [14]) was 780 nM; in data set [2] (setting [16]) it was 5320 nM; in data set [9], 820 nM; in data set [5], 220 nM. The “Selectivity ratio F” value in data set [2] turned out to be 2.14. Also, in [2] (setting [15]), the “Cytotox ratio Pf Female” value is given as 1.2. In addition, in data set [8] (human), the “Cytotox ratio Pf FGAA” value turned out to be 4.9. The “Cytotox ratio Pf GC-ATP” value in [4] (human) was 20.4. Also, the “FGAA TOX50 HepG2” value in data set [6] (setting [17]) is on record as 3.98 µM. The “GC-ATP TOX50 HepG2” value in [6] (setting [18]) is listed as 4.49 µM. Moreover, the Tox50 in [7] turned out to be 11.38 µM. Also, the “Mean TOX” value in data set [7] is 6.62 µM.
Turning to `CN1CCN(CCCNCc2cccc(-c3ccc(CNCCc4ccccc4)cc3)c2)CC1.O=C(O)C(F)(F)F` [TCMDC-140643], the “Selectivity Ratio M” value in data set [1] amounted to 18.8. Besides, the “Cytotox ratio Pf Male” value in [1] (setting [13]) was determined as 18.9. Moreover, the inhibition at 2 µM in data set [1] (setting [19]) turned out to be 91.2%; in data set [1] (setting [20]) it was 95%; in data set [1] (setting [21]), 75.6%; in data set [1] (setting [22]) it was 95.7%; in [1] (setting [23]) it was 98.5%; in [2] (setting [24]), 34.1%. The inhibition at 2 µM turned out to be 40.2% in data set [2] (setting [25]), 30.4% in data set [2] (setting [26]), 25.8% in data set [2] (setting [27]) and 40% in data set [2] (setting [28]). For the same compound, the concentration for half-maximal inhibition (IC50) is 690 nM in data set [1] (setting [14]), 7980 nM in data set [2] (setting [16]), 1910 nM in data set [9] and 410 nM in data set [5]. In addition, the “Selectivity ratio F” value in [2] is recorded as 1.63. Also, in data set [2] (setting [15]), the “Cytotox ratio Pf Female” value was 1.6. Also, the “Cytotox ratio Pf FGAA” value in data set [8] (human) was 6.8. Moreover, the “Cytotox ratio Pf GC-ATP” value in data set [4] (human) was 31.9. Besides, the “FGAA TOX50 HepG2” value in data set [6] (setting [17]) was 7.92 µM. In addition, the “GC-ATP TOX50 HepG2” value in data set [6] (setting [18]) is reported as 18.24 µM. The Tox50 in data set [7] was 13.04 µM. Also, in [7], the “Mean TOX” value is reported as 13.07 µM.

A word on the IC50: it is the concentration at which inhibition is half-maximal. What is called inhibition is the change of the read-out against control, counted positive when it falls.
